Measurements as given in patent US12133909B2, “Use of evodone or a derivative thereof as a cooling agent” (ROBERTET S.A., priority 2019, dated 2024).

Key:
[1] = Cooling effect of creams rated on a 0 to 3 scale after application onto the forearms; format: in vivo, human; conditions: 1% in cream, forearm sensory score
Protocol: To measure the cooling effect, 100 mg of one of the creams 1 to 4 or of a placebo are applied onto the inner side of both forearms of persons who have agreed to test the product. After one minute, each participant is asked to rate the cooling effect on a scale of 0 to 3 (i.e. score), with 3 being the maximum effect.
Each cream (including the placebo) is applied randomly and blindly to the forearms of 17 people.

[2] = Skin temperature by thermal camera after application of creams on the back; format: in vivo, human; conditions: 1% in cream
Protocol: For this study, the cooling effect of 5 compositions containing different cooling agents is evaluated in vivo according to the following protocol.
22 female subjects aged from 18 to 63 were selected. On the back of each subject, between the two scapulas, six areas of 3 cm×2.5 cm are delimited. On 5 areas chosen each time randomly, 15 mg of the compositions to be tested are applied. Nothing is applied onto the sixth area (i.e. control).
From the time of application of the creams (T0), the skin temperature of the different zones is measured on each subject using a thermal camera (Thermovision SC6000HS (Flirsystems)—resolution 640×512—frequency 125 Hz) at the following times: T0, T0+15 s, T0+30 s, T0+45 s, T0+1 min, T0+1 min30 s, T0+2 min, T0+3 min, T0+4 min, T0+5 min, T0+6 min, T0+8 min and T0+10 min. The measurements are performed at 21° C.±1.5° C., the subject lying on their stomach and motionless. The temperatures are measured with an accuracy of around 0.10° C.
A variance test (ANOVA) is used to compile and validate the results. […]
If these two conditions are met, the statistical analysis allowing comparing the parameters measured at the different times is conducted by a one-factor variance analysis (ANOVA) test on repeated measurements. […]

Cc1coc2c1C(=O)CC(C)C2 (stereo not drawn) [evodone, 6-dimethyl-6,7-dihydro-5H-1-benzofuran-4-one]
Cooling effect compared with citriodiol or cubebol [1]: cooling effect similar to that which can be provided by molecules such as citriodiol or cubebol | Cooling effect compared with menthyl lactate (Frescolat ML) [1]: significantly greater than that obtained with menthyl lactate | Cooling effect compared with menthyl lactate, citriodiol or cubebol [2]: cooling effect similar to that which can be provided by molecules such as menthyl lactate
